Laboratory results reported in PMC9379551, “Structure of cytosine transport protein CodB provides insight into nucleobase‐cation symporter 1 mechanism” (The EMBO Journal, 2022).

What was measured:
CodB [1] = target: T1, CodB (Proteus vulgaris, UniProt A0A6G6SKI1); experiment: GFP thermostability assay titration (Kd); inhibition of 3H-cytosine uptake in cells; assay type: binding; set-up: CodB from P. vulgaris expressed as CodB-GFP fusion, detergent-solubilised membranes
CodB [2] = target: T1, CodB; experiment: crystal structure at […] Å; GFP thermostability assay titration (Kd); sodium-dependent 3H-cytosine uptake in cells; assay type: binding; set-up: CodB from P. vulgaris expressed as CodB-GFP fusion (GFP-TS assay); cleaved with 3C protease for crystallisation

T1 sequence (A0A6G6SKI1 entry or part of it): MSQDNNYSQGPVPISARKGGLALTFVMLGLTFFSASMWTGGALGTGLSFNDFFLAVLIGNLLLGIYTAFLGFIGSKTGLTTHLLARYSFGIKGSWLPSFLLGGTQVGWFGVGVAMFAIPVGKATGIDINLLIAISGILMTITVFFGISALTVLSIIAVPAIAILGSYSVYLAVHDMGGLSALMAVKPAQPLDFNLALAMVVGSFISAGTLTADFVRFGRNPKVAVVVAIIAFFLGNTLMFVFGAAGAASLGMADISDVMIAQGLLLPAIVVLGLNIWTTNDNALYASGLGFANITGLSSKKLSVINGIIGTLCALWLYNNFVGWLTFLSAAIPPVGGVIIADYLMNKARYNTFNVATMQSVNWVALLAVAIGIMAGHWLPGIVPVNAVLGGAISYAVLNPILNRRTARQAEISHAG

Nc1nc(=O)[nH]cc1F [5-fluorocytosine]
Kd (CodB [1]): 285 ± 39 µM

Nc1cc[nH]c(=O)n1 [cytosine]
Kd (CodB [2]): 51 ± 9 µM
